Results from US10105326B2, “Pharmaceutical solution comprising dopamine for use in treating parkinson's disease” (CENTRE HOSPITALIER REGIONAL ET UNIVERSITAIRE DE LILLE (CHRU), priority 2014, dated 2018).

Legend:
Type in all cases: in vivo
striatum of MPTP mice = experiment: Neurotransmitter content in striatum of MPTP mice (HPLC)
Protocol: (§1) Five-month-old male C57B1/6J mice (Elevage Janvier, Le Genest St Isle, France) weighing 28-30 g were used. The mice received four intraperitoneal injections (with 2 h intervals) of saline solution containing 0 (“Saline mice”) or 20 mg/kg of MPTP (“MPTP mice”) (Sigma Aldrich, St Louis, Mo. USA). Saline or MPTP were administrated at day 0 (D0), the central continuous dopamine infusion or peripheral L-dopa treatment were delivered from 7th to the 14th day (D7 to D14), and then spontaneous locomotor measurement and sacrifice were performed at D14.

MPTP mice = experiment: Spontaneous motor activity (actimetry) in MPTP mice; conditions: for spontaneous locomotor activity: 7 days
Protocol: as §1
After 7 days of treatment (i.p. L-dopa or i.c.v dopamine), spontaneous motor activity was recorded in an actimeter (Panlab, Barcelona, Spain) during 10 minutes. The apparatus was a 45×45×35 cm transparent Plexiglas enclosure equipped with two frames of infrared beams. This apparatus allowed horizontal motor activity (distance traveled, speed, movement type) and rearing behavior to be measured based on infrared beams obstructions. Chosen parameters were collected by Actitrack software (Panlab, Barcelona, Spain).

TH-ir neurons in SNpc = experiment: TH-ir neurons counting in SNpc of MPTP mice
Protocol: as §1
The brains were removed and, after a post-fixation process, were cryoprotected and frozen. […]
The number of TH-ir neurons (“Tyrosine Hydroxylase-Immunoreactive») in the SNpc was assessed by counting TH-ir neurons of the left and right hemisphere in every 4th section of the SNpc of all experimental groups. […] For the unbiased quantification, a line was drawn around the SNpc of each section. […] Cells were counted with a 40× using a Nikon Eclipse E600 microscope (Tokyo, Japan). […] As no difference between left and right SNps was found, TH-ir counted neurons of both sides were pooled and for each animal, a sum of neurons counted in each section was calculated. […]

[1] = test system: TH-ir terminals in dorsal striatum; experiment: TH-ir optical density in dorsal striatum of MPTP mice; conditions: MPTP administration
[2] = peripheral L-dopa 50 and 100 mg/day

| SMILES | dopaminergic neurotransmission in striatum (striatum of MPTP mice; peripheral L-dopa 25 mg/day) | serotonin and noradrenalin in both striatum (striatum of MPTP mice; peripheral L-dopa 25 mg/day) | dopamine and metabolites in both striatum (striatum of MPTP mice; [2]) | serotonin and noradrenalin content (striatum of MPTP mice; [2]) | abnormal behaviors (MPTP mice; high doses of L-Dopa) | spontaneous locomotor activity (MPTP mice; peripheral L-dopa 50 mg/kg/day) | spontaneous locomotor activity (MPTP mice; peripheral L-dopa 25 and 100 mg/day) | effect on TH-ir neurons in SNpc (TH-ir neurons in SNpc; L-dopa treatment, 7 days) | loss of TH-expressing neurons in the striatum compared to saline-injected mice [1] | reduction in DOPAC content in each striatum (striatum of MPTP mice; MPTP intoxication) | reduction in HIA content in each striatum (striatum of MPTP mice; MPTP intoxication) | reduction in HVA content in each striatum (striatum of MPTP mice; MPTP intoxication) | reduction in noradrenalin content in each striatum (striatum of MPTP mice; MPTP intoxication) | reduction in serotonin content in each striatum (striatum of MPTP mice; MPTP intoxication) | reduction in dopamine content in each striatum (striatum of MPTP mice; MPTP intoxication, 4 x 20 mg/kg i.p.) | loss of TH-expressing neurons in the SNpc compared to saline-injected mice (TH-ir neurons in SNpc; MPTP administration) |
| --- | --- | --- | --- | --- | --- | --- | --- | --- | --- | --- | --- | --- | --- | --- | --- | --- |
| N[C@@H](Cc1ccc(O)c(O)c1)C(=O)O [L-dopa, L-3,4-dihydroxyphenylalanine] | no effect on dopaminergic neurotransmission | increase in serotonin and noradrenalin in both striatum | significant increase in dopamine and metabolites in both striatum | no supplemental effect on serotonin and noradrenalin content | abnormal behaviors such as dyskinesia | restored | no effect | no significant effect | – | – | – | – | – | – | – | – |
| CN1CC=C(c2ccccc2)CC1 [MPTP, 1-methyl-4-phenyl-1,2,3,6-tetrahydropyridine] | – | – | – | – | – | – | – | – | 38.2% | 70-80% | 20-50% | 60-70% | 35-50% | 40-40% | 85-90% | 44.3% |
